Source: patent EP3833345B1, “SMALL MOLECULE-INHIBITORS OF 6-PHOSPHOFRUCTO-1-KINASE FOR REDUCING LACTATE GENERATION BY CANCER CELLS” (Kemijski Institut, priority 2018, dated 2020)
Entries after “also recorded” stand apart in the source; their conditions may differ.

How the values were obtained:
[1] = target: T1, modified (70 kDa) 6-phosphofructo-1-kinase (PFK-L), sfPFK-L (Homo sapiens, UniProt P17858); assay: in vitro inhibition of purified recombinant modified PFK-L fragment
T1 sequence (P17858 1-645 limits assumed): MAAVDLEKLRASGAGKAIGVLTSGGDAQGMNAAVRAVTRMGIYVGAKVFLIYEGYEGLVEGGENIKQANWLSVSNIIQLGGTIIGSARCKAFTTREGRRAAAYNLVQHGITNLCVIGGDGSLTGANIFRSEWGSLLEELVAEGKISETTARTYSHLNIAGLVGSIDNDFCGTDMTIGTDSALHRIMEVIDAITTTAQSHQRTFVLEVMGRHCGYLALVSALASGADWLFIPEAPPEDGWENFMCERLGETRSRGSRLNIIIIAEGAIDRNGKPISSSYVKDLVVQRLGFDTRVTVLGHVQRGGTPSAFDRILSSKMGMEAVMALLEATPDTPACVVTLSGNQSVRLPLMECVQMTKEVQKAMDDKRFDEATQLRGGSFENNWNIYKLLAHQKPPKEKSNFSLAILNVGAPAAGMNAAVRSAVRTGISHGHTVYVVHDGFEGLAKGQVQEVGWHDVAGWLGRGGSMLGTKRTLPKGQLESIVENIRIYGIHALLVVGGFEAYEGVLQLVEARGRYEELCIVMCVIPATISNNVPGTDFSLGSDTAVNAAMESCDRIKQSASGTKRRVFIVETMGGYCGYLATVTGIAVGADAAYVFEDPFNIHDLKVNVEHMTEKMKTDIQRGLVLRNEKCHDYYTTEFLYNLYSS

COLO 829 cells [2] = assay: lactate excretion by COLO 829 cells; assay type: cell-based; details: for lactate formation in COLO 829 cells, sequential re-insertion: inhibitor added 8 hours after inoculation, then at 24-hour intervals, low concentrations (from 10 µM)
Protocol: (§1) Preliminary in vivo tests were run by measuring lactate production by three different tumorigenic cell lines. Again, 100 µM concentrations of tested compounds have been added to the medium. For the experiment, the following tumorigenic cells lines originating from different tumours were tested: Caco-2 cells (Figure 10a), originating from colorectal adenoma carcinoma; COLO 829 cells (Figure 10b), isolated from melanoma; and MDA-MB-231 cells (Figure 10c) derived from metastatic phase of mammary/breast cancer. All adherent cell lines were grown in the RPMI 1640 GlutaMAX substrate (Thermo Fisher) supplemented with 10% FBS.
On the basis of preliminary results, inhibitors No. 23, 29, 30 and 31 were tested on COLO 829 cells. […] No significant discrepancies of total cell numbers in respect to the control were observed due to the different concentrations of inhibitors in the medium (Figure 13e). The average percent of dead COLO 829 cells in the control and in the presence of different concentrations of inhibitors were as follows: inh. 23 (9,23±0,6%), inh. 29 (9,31±0,73%), inh. 30 (8,27±0,49%), inh. 31 (8,26±0,38%). Additionally, cytotoxicity of inh. 3 (5,01±1,08%) and 9 (3,65±0,78%) for COLO 829 cells were also determined. No dose dependent decrease of survival was observed by any inhibitor.
(§2) A decrease in inhibitory effectiveness of some compounds was observed after certain period of time (Example 11). […] Therefore, the influence of selected inhibitors was assessed by sequential re-insertion of low concentrations of inhibitors at indicated time points. The inhibitors were first added to the medium 8 hours after the inoculation followed by periodically additions at 24-hour intervals (marked by arrows).
No significant cytostatic (Figure 16f) of cytotoxic effect of inhibitors could be detected after 92 hours of incubation despite of sequential addition of various concentrations of inhibitors. The following average percentages of dead cells were perceived in the medium without and media with inh. 3 (1,95±0,15%) inh. 9 (1,70±0,14%), inh. 23 (2,40±0,09%), inh. 29 (1,66±0,25%) and inh. 30 (1,38±0,18%). No detrimental effects of increased inhibitors concentrations on cell deaths have been observed.

MDA-MB-231 cells [3] = assay: cytotoxicity in MDA-MB-231 cells (LDH kit); assay type: cell-based; details: for average percentages of dead cells, MDA-MB-231, sequential re-insertion: sequential addition at 24-hour intervals, 92 hours, average over medium without and with inhibitor; for average percent of dead MDA-MB-231 cells: single addition, average over control and different concentrations of inhibitor
Protocol: (§3) Lactate generation, growth yield and survival under normal and inhibitory conditions of three different tumorigenic cells lines were determined in more detailed measurements. […] Cytotoxicity was measured by the Lactate dehydrogenase (LDH) kit (Roche).
Inhibitors No. 23, 29, 30 and 31 were tested for preventing lactate generation by the MDA-MB-231 cells.

COLO 829 cells [4] = assay: cytotoxicity in COLO 829 cells (LDH kit); assay type: cell-based; details: for average percentages of dead cells, COLO 829, sequential re-insertion: sequential addition at 24-hour intervals, 92 hours, average over medium without and with inhibitor; for average percent of dead COLO 829 cells: single addition, average over control and different concentrations of inhibitor
Protocol: as §3

MDA-MB-231 cells [5] = assay: lactate excretion by MDA-MB-231 cells; assay type: cell-based; details: single addition, different concentrations
Protocol: as §1
Inhibitors No. 23, 29, 30 and 31 were tested for preventing lactate generation by the MDA-MB-231 cells. […] No significant discrepancies of total cell numbers were observed (Figure 14e) due to the different concentrations of inhibitors in the medium. […] The average percent of dead MDA-MB-231 cells in the control and in the presence of different concentrations of inhibitors were as follows: inh. 23 (2,98±0,2%), inh. 29 (3,37±0,39%), inh. 30 (3,4±0,21%), inh. 31 (6,87±0,44%). Additionally, cytotoxicity of inh. 3 (7,2±0,47%) and 9 (6,59±0,29%) for MDA-MB-231 cells were also determined. No dose dependent decrease of survival was observed by any inhibitor.
as §2
In MDA-MB-231 calls similar results to those found in Caco-2 cells were observed. […] No significant cytostatic (Figure 17f) or cytotoxic effect of inhibitors could be detected after 92 hours of incubation despite of sequential addition of various concentrations of inhibitors. The following average percentages of dead cells were perceived in the medium without and with inh. 3 (2,05±0,18%), inh. 9 (1,85±0,05%), inh. 23 (2,20±0,15%), inh. 29 (1,54±0,16%) and inh. 30 (2,00±0,18%). No detrimental effects of increased inhibitors concentrations on cell deaths have been observed.

Caco-2 cells [6] = assay: total cell numbers of Caco-2 cells at end of incubation; assay type: cell-based; details: single addition, end of incubation (92 hours)
Protocol: as §3

Jurkat cells [7] = assay: NADH levels in Jurkat cells (NADH/NAD fluorometric assay kit); assay type: cell-based, human; details: 24 hours after addition, different concentrations
Protocol: By inhibiting modified PFK-M enzyme in the cancer cells, glycolytic flux should be decreased and concomitantly NADH levels reduced. To verify that, the amounts of reduced pyridine nucleotide was measured by NADH/NAD fluorometric assay kit (Abcam). The Jurkat cells were seeded into the wells of 96 wells plate at 5×10^5 cells per mL. The untreated cells (control) and the cells with specified amounts of added Inhibitors No. 3 and No. 9 were incubated for 24 hours.

Caco-2 cells [8] = assay: cytotoxicity in Caco-2 cells (lactate dehydrogenase (LDH) kit); assay type: cell-based; details: for average percent of dead cells, Caco-2: single addition, average over control and different concentrations of inhibitor
Protocol: as §3

Jurkat cells [9] = assay: lactate excretion by Jurkat cells (enzymatic L-lactic acid kit); assay type: cell-based, human
Protocol: The cells were incubated in 1 mL volume (24 well plates) at 5% CO2 and 37°C. The inhibitors were added in 100 µM concentration. As a control, equivalent amount of DMSO as used for the addition of inhibitors was supplemented to the medium. The tests started with 1×10^5 cells per mL. Extracellular lactate excreted by the Jurkat cells was measured in the supernatant of the growth medium after the cells were removed by centrifugation at 1500 rpm for 5 minutes. Lactate concentration was determined enzymatically using L-Lactatic acid kit (K-LATE, Megazyme, Ireland).
Measurements of lactate excretion in the tumorigenic Jurkat cells and the cells treated with two selected inhibitors at different concentrations were repeated by more detailed measurements. The growth conditions were identical to those described in Experiment 2. No significant difference in lactate excretion could be observed by the treated and untreated cells during the initial stage of growth that lasted for approximately 12 hours. Later on lactate excretion by the Jurkat cells ceased in the presence of both inhibitors.

Jurkat cells [10] = assay: long-term fed-batch cultivation of Jurkat cells (18 days); details: 100 µM, fed-batch, 18 days
Jurkat cells [11] = assay: Seahorse XF assay (ECAR and OCR) in Jurkat cells; assay type: cell-based, human
Protocol: The efficiency of Inhibitors No. 3 and No. 9 was also tested by the determinations of glycolytic capacities in Jurkat cells in the presence and absence of inhibitors. For this purpose, Seahorse XF assay (Agilent Technology) was performed that enables non-destructive measurements of extracellular acidification rate (ECAR) and oxygen consumption rate (OCR) of tested cells. The cells were incubated in […] GlutaMAX medium with 10% FBS and 24 hours before the experiment inhibitors were added (100 µM). Non-adherent Jurkat cells (1×10^6 per mL) were stuck to the bottom of the wells by poly-I-lysine. The experiment was conducted essentially as recommended by Seahorse XF protocol and after 20 minutes of incubation, 1 µM of oligomycin A (ATP synthase inhibitor) and 0,25 µM of Carbonyl cyanide-4-(trifluoromethoxy)phenylhydrazone (FCCP) (mitochondrial oxidative phosphorylation uncoupler) were added to the cells. […] Reduced lactate excretion by the cells treated with both inhibitors might be responsible for reduced ECARs. Although the addition of oligomycin A and FCCP increased the extracellular acidification rate by the cells treated with both inhibitors, similar increase of ECAR was also observed in the untreated cells. […] It implies that inhibited PFK1 enzymes might reduce glycolytic flux and prevent the need for pyruvate reduction into lactate by re-oxidizing redundant cytosolic NADH. Under such conditions pyruvate can enter mitochondria, replenishing tri-carboxylic acids (TCA) cycle and fuelling oxidative respiration.

Jurkat cells [12] = assay: growth and survival of Jurkat cells (Countess, Trypan blue); assay type: cell-based
Protocol: The effects of both inhibitors were tested also on growth of the non-adherent Jurkat cells. Total amount of cells and the number of dead cells was determined by the Countess (Invitrogen, Carlsbad, CA). […].

Caco-2 cells [13] = assay: lactate excretion by Caco-2 cells; assay type: cell-based; details: single addition, different concentrations (20-80 µM)
Protocol: Preliminary in vivo tests were run by measuring lactate production by three different tumorigenic cell lines. […] For the experiment, the following tumorigenic cells lines originating from different tumours were tested: Caco-2 cells (Figure 10a), originating from colorectal adenoma carcinoma; COLO 829 cells (Figure 10b), isolated from melanoma; and MDA-MB-231 cells (Figure 10c) derived from metastatic phase of mammary/breast cancer.
as §3
Therefore, the influence of selected inhibitors was assessed by sequential re-insertion of low concentrations of inhibitors at indicated time points. The inhibitors were first added to the medium 8 hours after the inoculation followed by periodically additions at 24-hour intervals (marked by arrows).

Compound	IC50 [1] [µM]	lactate formation in COLO 829 cells, sequential re-insertion (COLO 829 cells [2])	average percentages of dead cells, MDA-MB-231, sequential re-insertion (MDA-MB-231 cells [3])	average percent of dead MDA-MB-231 cells (MDA-MB-231 cells [3])	average percentages of dead cells, COLO 829, sequential re-insertion (COLO 829 cells [4])	average percent of dead COLO 829 cells (COLO 829 cells [4])	average percent of dead cells, Caco-2 (Caco-2 cells [8])	also measured
Nc1nnc(-c2cc(-c3ccc(O)cc3)on2)o1 [Inhibitor No. 30, 4-[3-(5-amino-1,3,4-oxadiazol-2-yl)isoxazol-5-yl]phenol]	10	slightly weaker inhibitions	2,00±0,18%	3,4±0,21%	1,38±0,18%	8,27±0,49%	–	lactate excretion by COLO 829 cells (COLO 829 cells [2]; single addition, different concentrations): strongest reductions of lactate excretion; lactate excretion by MDA-MB-231 cells (MDA-MB-231 cells [5]): strong inhibition; total cell numbers, Caco-2 (Caco-2 cells [6]): minor dose dependent reductions in total cell numbers
COc1ccc(-c2cccc(-c3ccn(Cc4noc(C)n4)n3)c2)nn1 [Inhibitor No. 9, 3-methoxy-6-(3-{1-[(5-methyl-1,2,4-oxadiazol-3-yl)methyl]-1H-pyrazol-3-yl}phenyl)pyridazine]	–	strong reduction of lactate formation	1,85±0,05%	6,59±0,29%	1,70±0,14%	3,65±0,78%	3,33±0,14%	NADH levels (Jurkat cells [7]): steadily decreased in dose dependent manner; average percentages of dead cells, Caco-2, sequential re-insertion (Caco-2 cells [8]; sequential addition at 24-hour intervals, 92 hours, average over medium without and with inhibitor): 5,05±0,62%; time at which lactate production was averted (Jurkat cells [9]; inhibitor concentrations lower than 200 µM): 36 h; lactate excretion by the Jurkat cells (Jurkat cells [9]; preliminary test, 100 µM inhibitor, followed for 48 hours, versus DMSO control): Significantly lowered lactate excretions; also recorded: effectively prevented excretion; viability of the Jurkat cells, long-term (Jurkat cells [10]): remained unchanged; number of cells, long-term (Jurkat cells [10]; fresh medium with inhibitor every 48 hours): steadily declined; ECAR and OCR values prior to the addition of oligomycin A and FCCP (Jurkat cells [11]; 100 µM added 24 hours before the experiment, treated versus untreated cells): untreated Jurkat cells revealed higher ECAR and OCR values; oxygen consumption rate after addition of oligomycin A and FCCP (Jurkat cells [11]; 100 µM, 1 µM oligomycin A and 0,25 µM FCCP, versus untreated cells): slightly stronger affect; dead cells (Jurkat cells [12]; Jurkat cells stained with Tripan blue): 3,76±0,3%; effect on growth of Jurkat cells (total cell numbers) (Jurkat cells [12]; different concentrations, 72 hours): no effect
O=C(CCS(=O)(=O)c1ccccc1)Nc1nnc(-c2ccno2)o1 [Inhibitor No. 32, 3-(benzenesulfonyl)-N-(5-isoxazol-5-yl-1,3,4-oxadiazol-2-yl)propanamide]	8	–	–	–	–	–	3,97±0,18%	lactate generation by Caco-2 cells (Caco-2 cells [13]): strong inhibition at all tested concentrations
